Test results as given in patent publication US10538567B2, “Compounds as peptidic trigonal GLP1/glucagon/GIP receptor agonists” (priority 2016, dated 2020).
Numbered stars: 1 amine (or outer) side, 2 acyl side, 3 side chain; on linkers, the order of the positions; unused ones are H or OH. Square brackets hold non-standard residues; d marks the D form. Side chains are listed from the residue outwards. Peptide text beside a SMILES is read from it. * marks the point of attachment. Adipoyl(4R-palmitoylamino) = CCCCCCCCCCCCCCCC(=O)N[C@H](CCC(=O)*)CC(=O)O; γGlu = O=C(O)[C@H](CCC(=O)[*:2])N[*:1]; AEEA = NCCOCCOCC(=O)O; Aib = CC(C)(N)C(=O)O

Assays:
[1] = biological target: T1, human GIP receptor (Homo sapiens, UniProt P48546); assay: cAMP response (HTRF) of HEK-293 cells stably expressing human GIP receptor; format: cell-based; conditions: Table 8; read-out: EC50 hGIP R
T1 construct: expressed in transfected cells; host or cells: HEK-293
T1 sequence (P48546 22-466): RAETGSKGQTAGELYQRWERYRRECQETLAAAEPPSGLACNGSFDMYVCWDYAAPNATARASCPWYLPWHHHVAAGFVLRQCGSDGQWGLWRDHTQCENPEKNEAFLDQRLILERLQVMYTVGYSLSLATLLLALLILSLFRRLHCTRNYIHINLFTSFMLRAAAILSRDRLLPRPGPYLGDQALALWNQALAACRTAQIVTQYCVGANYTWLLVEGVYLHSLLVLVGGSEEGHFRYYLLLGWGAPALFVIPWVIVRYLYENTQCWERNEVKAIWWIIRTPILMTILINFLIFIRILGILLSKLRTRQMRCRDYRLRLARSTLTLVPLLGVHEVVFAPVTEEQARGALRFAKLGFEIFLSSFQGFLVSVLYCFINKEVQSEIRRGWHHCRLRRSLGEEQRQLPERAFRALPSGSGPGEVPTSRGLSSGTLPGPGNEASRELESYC
Protocol: Agonism of compounds for the receptors was determined by functional assays measuring cAMP response of HEK-293 cell lines stably expressing human GLP-1, GIP or glucagon receptor.
(§1) cAMP content of cells was determined using a kit from Cisbio Corp. (cat. no. 62AM4PEJ) based on HTRF (Homogenous Time Resolved Fluorescence). For preparation, cells were split into T175 culture flasks and grown overnight to near confluency in medium (DMEM/10% FBS). Medium was then removed and cells washed with PBS lacking calcium and magnesium, followed by proteinase treatment with accutase (Sigma-Aldrich cat. no. A6964). Detached cells were washed and resuspended in assay buffer (1×HBSS; 20 mM HEPES, 0.1% BSA, 2 mM IBMX) and cellular density determined. They were then diluted to 400000 cells/ml and 25 μl-aliquots dispensed into the wells of 96-well plates. For measurement, 25 μl of test compound in assay buffer was added to the wells, followed by incubation for 30 minutes at room temperature. After addition of HTRF reagents diluted in lysis buffer (kit components), the plates were incubated for 1 hr, followed by measurement of the fluorescence ratio at 665/616 nm. In vitro potency of agonists was quantified by determining the concentrations that caused 50% activation of maximal response (EC50).
(§2) Potencies of peptidic compounds at the GLP-1, glucagon and GIP receptors were determined by exposing cells expressing human glucagon receptor (hGlucagon R), human GIP receptor (hGIP-R) or human GLP-1 receptor (hGLP-1 R) to the listed compounds at increasing concentrations and measuring the formed cAMP as described in Methods.

[2] = Thioflavin T (ThT) assay for physical stability (fibrillation); format: physicochemical; conditions: 3 mg/ml, 100 mM acetate pH 4.5 with m-cresol, 37° C. shaking
Text: Low physical stability of a peptide solution may lead to amyloid fibril formation, which is observed as well-ordered, thread-like macromolecular structures in the sample, which eventually may lead to gel formation. Thioflavin T (ThT) is widely used to visualize and quantify the presence of misfolded protein aggregates. [Biancalana et al. (2010) Biochimica et Biophysica Acta. 1804 (7): 1405-1412]. […] Enzymol. 309, 274-284]. The time course for fibril formation often follows the characteristic shape of a sigmoidal curve and can be separated into three regions: a lag phase, a fast growth phase, and a plateau phase.
The typical fibril formation process starts with the lag phase in which the amount of partially folded peptide turned into fibrils is not significant enough to be detected. The lag-time corresponds to the time the critical mass of the nucleus is built. Afterwards, a drastic elongation phase follows and fibril concentration increases rapidly.
Investigations were carried out to determine fibrillation tendencies under stress conditions by shaking at 37° C. within Fluoroskan Ascent FL.
For the tests in Fluoroskan Ascent FL, 200 μL sample were placed into a 96 well mictrotiter plate PS, flat bottom, Greiner Fluotrac No. 655076. Plates were sealed with Scotch Tape (Quiagen). Samples were stressed by continuous cycles of 10 s shaking at 960 rpm and 50 s rest period at 37° C. The kinetic was monitored by measuring fluorescence intensity every 20 minutes.
Peptides were diluted in a buffer system to a final concentration of 3 mg/ml. 20 μL of a 10.1 mM ThT solution in H2O were added to 2 mL of peptide solution to receive a final concentration of 100 μM ThT. For each sample eight replicates were tested.
Tht buffer system A) 100 mM Acetate pH 4.5 including m-cresol (100 mM Natriumacetat trihydrat, pH adjustment using 2N CH3COOH, 2.7 mg/mL m-cresol) Tht buffer system B) 100 mM citrate buffer pH 6.0
Lag time in hours in Thioflavin T (ThT) assay of peptide samples was determined in ThT buffer system A as described in Methods.

[3] = Chemical stability assessment, UPLC-UV purity loss in buffer system A; format: physicochemical; conditions: 1 mg/ml, 25 mM acetate buffer pH 4.5 with m-cresol
Protocol: Prior to the chemical stability measurement of a peptide batch, its purity was determined through UPLC/MS. For stability testing the target concentration was 1 mg pure compound/ml. Therefore solutions from solid samples were prepared in a buffer system with a concentration of 1 mg/mL compound based on the previously determined % purity:
Chemical stability buffer system A) 25 mM acetate buffer pH 4.5, 3 mg/mL L-Methionine, 2.7 mg/mL m-cresol, 18 mg/mL Glycerol 85% Chemical stability buffer system B) 25 mM phosphate buffer pH 6.0, 3 mg/mL L-Methionine, 2.7 mg/mL m-cresol, 18 mg/mL Glycerol 85%
Peptide solutions were filtered through […] pore size and filled into aliquots under aseptic conditions. At starting point, UPLC-UV was performed by injection of 2 μl of the undiluted sample.
For chemical stability testing, aliquots were stored for 28 days at 5 and 40° C. After this time course the samples were centrifuged for 15 min at 2500 RCF. Then 2 μl of the undiluted supernatant were analysed with UPLC-UV.
The chemical stability was rated through the relative loss of purity calculated by the equation: [(purity at starting point)−(purity after 28 days at X° C.)]/(purity at starting point)]*100%
The purity is calculated as
[(peak area peptide)/(total peak area)]*100%
Peptide samples were prepared in Chemical stability buffer system A and the stability was assessed as described in Methods.

[4] = biological target: T2, human GLP-1 receptor (Homo sapiens, UniProt P43220); assay: cAMP response (HTRF) of HEK-293 cells stably expressing human GLP-1 receptor; format: cell-based; conditions: Table 8; read-out: EC50 hGLP-1R
T2 construct: expressed in transfected cells; host or cells: HEK-293
Protocol: as §1, with “temperature.” for “temperature. After addition of HTRF reagents diluted in lysis buffer (kit components), the plates were incubated for 1 hr, followed by measurement of the fluorescence ratio at 665/616 nm. In vitro potency of agonists was quantified by determining the concentrations that caused 50% activation of maximal response (EC50).”
as §2

T2 sequence (P43220 24-463): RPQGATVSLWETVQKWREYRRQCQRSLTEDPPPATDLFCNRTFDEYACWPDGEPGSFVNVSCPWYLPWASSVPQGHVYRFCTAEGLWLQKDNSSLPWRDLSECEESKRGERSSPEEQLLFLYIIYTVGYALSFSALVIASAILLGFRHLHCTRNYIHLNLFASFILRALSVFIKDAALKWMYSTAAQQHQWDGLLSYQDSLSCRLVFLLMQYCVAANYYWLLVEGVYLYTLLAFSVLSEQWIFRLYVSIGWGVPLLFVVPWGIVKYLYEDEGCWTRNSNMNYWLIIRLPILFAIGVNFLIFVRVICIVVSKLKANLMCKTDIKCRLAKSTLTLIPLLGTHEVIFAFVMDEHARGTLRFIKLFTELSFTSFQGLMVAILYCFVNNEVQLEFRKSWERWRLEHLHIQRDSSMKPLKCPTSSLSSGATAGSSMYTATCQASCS

SMILES	EC50 [1]	Lag time before increase [2]	Chemical stability [relative purity loss 28 days 40° C.] (%) at pH 4.5 [3]	EC50 [4]
CCCCCCCCCCCCCCCC(=O)N[C@@H](CCC(=O)NCCCC[C@H](NC(=O)[C@H](CC(C)C)NC(=O)[C@H](CCCCN)NC(=O)[C@H](CO)NC(=O)[C@H](CC(C)C)NC(=O)[C@H](CC(=O)O)NC(=O)[C@H](CO)NC(=O)[C@@H](NC(=O)[C@H](Cc1ccccc1)NC(=O)[C@@H](NC(=O)CNC(=O)[C@H](Cc1c[nH]cn1)NC(=O)C(C)(C)NC(=O)[C@@H](N)Cc1c[nH]cn1)[C@@H](C)O)[C@@H](C)O)C(=O)N[C@@H](CCC(=O)O)C(=O)N[C@@H](CCC(=O)O)C(=O)N[C@@H](CCC(N)=O)C(=O)N[C@@H](CCCNC(=N)N)C(=O)N[C@@H](CCC(N)=O)C(=O)N[C@@H](CCCCN)C(=O)N[C@@H](CCC(=O)O)C(=O)N[C@@H](Cc1ccccc1)C(=O)N[C@H](C(=O)N[C@@H](CCC(=O)O)C(=O)N[C@@H](Cc1c[nH]c2ccccc12)C(=O)N[C@@H](CC(C)C)C(=O)N[C@@H](CCCCN)C(=O)N[C@@H](C)C(=O)NCC(=O)NCC(=O)N1CCC[C@H]1C(=O)N1CCC[C@H]1C(=O)N[C@@H](CO)C(=O)NC(C)(C)C(=O)N[C@@H](CCCCN)C(=O)N1CCC[C@H]1C(=O)N1CCC[C@H]1C(=O)N1CCC[C@H]1C(=O)N[C@@H](CCCCN)C(N)=O)[C@@H](C)CC)C(=O)O [SEQ ID NO: 20, H-Aib-H-G-T-F-T-S-D-L-S-K-L-K[gGlu-Palm]-E-E-Q-R-Q-K-E-F-I-E-W-L-K-A-G-G-P-P-S-Aib-K-P-P-P-K-NH2]	1.9 pM	>45 h	–	–
CCCCCCCCCCCCCCCC(=O)N[C@H](CCC(=O)NCCOCCOCC(=O)N[C@@H](CCC(=O)NCCCC[C@H](NC(=O)[C@H](CC(C)C)NC(=O)[C@H](CCCCN)NC(=O)[C@H](CO)NC(=O)[C@H](CC(C)C)NC(=O)[C@H](CC(=O)O)NC(=O)[C@H](CO)NC(=O)[C@@H](NC(=O)[C@H](Cc1ccccc1)NC(=O)[C@@H](NC(=O)CNC(=O)[C@H](Cc1c[nH]cn1)NC(=O)C(C)(C)NC(=O)[C@@H](N)Cc1c[nH]cn1)[C@@H](C)O)[C@@H](C)O)C(=O)N[C@@H](CCC(=O)O)C(=O)N[C@@H](CCC(=O)O)C(=O)N[C@@H](CCC(N)=O)C(=O)N[C@@H](CCCNC(=N)N)C(=O)N[C@@H](CCC(N)=O)C(=O)N[C@@H](CCCCN)C(=O)N[C@@H](CCC(=O)O)C(=O)N[C@@H](Cc1ccccc1)C(=O)N[C@H](C(=O)N[C@@H](CCC(=O)O)C(=O)N[C@@H](Cc1c[nH]c2ccccc12)C(=O)N[C@@H](CC(C)C)C(=O)N[C@@H](CCCCN)C(=O)N[C@@H](C)C(=O)NCC(=O)NCC(=O)N[C@@H](Cc1c[nH]cn1)C(=O)N1CCC[C@H]1C(=O)N[C@@H](CO)C(=O)NC(C)(C)C(=O)N[C@@H](CCCCN)C(=O)N1CCC[C@H]1C(=O)N1CCC[C@H]1C(=O)N1CCC[C@H]1C(=O)N[C@@H](CCCCN)C(N)=O)[C@@H](C)CC)C(=O)O)CC(=O)O [SEQ ID NO: 22, H-Aib-H-G-T-F-T-S-D-L-S-K-L-K[gGlu-AEEA-gAAA-Palm]-E-E-Q-R-Q-K-E-F-I-E-W-L-K-A-G-G-H-P-S-Aib-K-P-P-P-K-NH2] (H-H[Aib]HGTFTSDLSKLK([γGlu-AEEA-Adipoyl(4R-palmitoylamino)])EEQRQKEFIEWLKAGGHPS[Aib]KPPPK-NH2)	1.1 pM	>45 h	9.5%	–
CCCCCCCCCCCCCCCC(=O)N[C@H](CCC(=O)NCCOCCOCC(=O)N[C@@H](CCC(=O)NCCCC[C@H](NC(=O)[C@H](CC(C)C)NC(=O)[C@H](CCCCN)NC(=O)[C@H](CO)NC(=O)[C@H](CC(C)C)NC(=O)[C@H](CC(=O)O)NC(=O)[C@H](CO)NC(=O)[C@@H](NC(=O)[C@H](Cc1ccccc1)NC(=O)[C@@H](NC(=O)CNC(=O)[C@H](Cc1c[nH]cn1)NC(=O)C(C)(C)NC(=O)[C@@H](N)Cc1c[nH]cn1)[C@@H](C)O)[C@@H](C)O)C(=O)N[C@@H](CCC(=O)O)C(=O)N[C@@H](CCC(=O)O)C(=O)N[C@@H](CCC(N)=O)C(=O)N[C@@H](CCCNC(=N)N)C(=O)N[C@@H](CCC(N)=O)C(=O)N[C@@H](CCCCN)C(=O)N[C@@H](CCC(=O)O)C(=O)N[C@@H](Cc1ccccc1)C(=O)N[C@H](C(=O)N[C@@H](CCC(=O)O)C(=O)N[C@@H](Cc1c[nH]c2ccccc12)C(=O)N[C@@H](CC(C)C)C(=O)N[C@@H](CCCCN)C(=O)N[C@@H](C)C(=O)N[C@H](C)C(=O)NCC(=O)N[C@@H](Cc1c[nH]cn1)C(=O)N1CCC[C@H]1C(=O)N[C@@H](CO)C(=O)NC(C)(C)C(=O)N[C@@H](CCCCN)C(=O)N1CCC[C@H]1C(=O)N1CCC[C@H]1C(=O)N1CCC[C@H]1C(=O)N[C@@H](CCCCN)C(N)=O)[C@@H](C)CC)C(=O)O)CC(=O)O [SEQ ID NO: 23, H-Aib-H-G-T-F-T-S-D-L-S-K-L-K[gGlu-AEEA-gAAA-Palm]-E-E-Q-R-Q-K-E-F-I-E-W-L-K-A-dAla-G-H-P-S-Aib-K-P-P-P-K-NH2] (H-H[Aib]HGTFTSDLSKLK([γGlu-AEEA-Adipoyl(4R-palmitoylamino)])EEQRQKEFIEWLKA[dA]GHPS[Aib]KPPPK-NH2)	1.5 pM	>45 h	8.6%	1.4 pM
